{
  "source": "patent US20180272034A1",
  "about": "“USE OF CSA COMPOUNDS TO PREVENT MICROBIAL BUILD-UP OR FOULING OF MEDICAL IMPLANTS” (BRIGHAM YOUNG UNIVERSITY, priority 2017, published 2018)",
  "key": {"PA01": {"system": "PA01", "assay": "Drip flow system, whole coated endotracheal tubes", "assay_type": "cell-based, Pseudomonas aeruginosa", "details": "hydrogel 10% CSA-131 2-NDSA; three inoculations of 10^7 CFU, 24 h; detection limit 10 CFU", "procedure": "At eight-hour intervals, bacteria (PA01, 10^6 CFU/mL) were passed through the tubes for 10 min (total of 10^7 CFU) at each interval. At a time point 30 min after introduction of bacteria, the growth medium flowing through the tubes was collected and plated to determine the number of bacterial colonies present. After 24 h, tubes were removed and sections (5 mm) were cut from above and below the cuff. These were sonicated in a neutralizing medium and the resulting solution was plated to quantify bacterial biofilm growth."}, "[1]": {"assay": "Hydrogel coating stability and reaction with ethylene oxide (ETO)", "procedure": "Releases of CSA-131 from hydrogel-based coatings were investigated, including examining coating stability and reaction of the coating with ethylene oxide (ETO) during sterilization processes. […] To mask this reactivity, coatings were prepared including varies percentages of citric acid to form non-volatile salts of the CSA compound.\nUsing a jet mill (Fluid Energy), CSA-131 2-NDSA was milled to an average particle size of 200 nm."}, "[2]": {"system": "Pseudomonas aeruginosa (PA01)", "assay": "Coated endotracheal tube segments, daily re-inoculation, growth in medium", "assay_type": "cell-based", "design": "key to bacterial growth in medium, Day 1 / bacterial growth in medium, Day 2 / bacterial growth in medium, Day 3 / bacterial growth in medium, Day 4 / bacterial growth in medium, Day 5 / bacterial growth in medium, Day 6 / bacterial growth in medium, Day 7 / bacterial growth in medium, Day 10 / bacterial growth in medium, Day 8 / bacterial growth in medium, Day 9: N=no growth; G=growth", "procedure": "(§1) A hydrogel coating containing 10% CSA-131 HCl and 3% citric acid, relative to the hydrogel solids, was tested for antibacterial efficacy using endotracheal tube segments (5.0 mm). These tube segments (surface area of ca. 1.5 cm^2) were dip coated and cured to give coatings of approximately 10 microns. Coated tube segments were washed in phosphate buffered saline (PBS) for varied amounts of time before testing. Antibacterial testing involved immersing tube segments in 10% TSB in PBS (1.0 mL) and inoculating with Pseudomonas aeruginosa (PA01)@10^6 colony forming units (CFU). Samples were incubated for 24 h, and bacterial growth in the medium was assayed visually (i.e., turbidity in the medium is caused by unrestricted bacterial growth). […] And the converse is true: if growth is supported in the medium that the device is colonized, to some extent.\n(§2) After 24 h of incubation, tube segments were immersed in fresh growth media (10% TSB in PBS, 1 mL), re-inoculated, and incubated. […] Experiments were performed in triplicate. N=no growth, G=growth.\n(§3) Antibacterial activity of a hydrogel coating (ca. 10 microns) containing CSA-131 2-NDSA (10% by weight relative to hydrogel solids) was determined as described in Example 8 using methicillin-resistant Staphylococcus aureus (MRSA) and Pseudomonas aeruginosa (PA01)."}, "[3]": {"system": "methicillin-resistant Staphylococcus aureus (MRSA)", "assay": "Coated endotracheal tube segments, daily re-inoculation, growth in medium", "assay_type": "cell-based", "design": "key to bacterial growth in medium, Day 1 / bacterial growth in medium, Day 10 / bacterial growth in medium, Day 2 / bacterial growth in medium, Day 3 / bacterial growth in medium, Day 4 / bacterial growth in medium, Day 5 / bacterial growth in medium, Day 6 / bacterial growth in medium, Day 7 / bacterial growth in medium, Day 8 / bacterial growth in medium, Day 9: N=no growth; G=growth", "procedure": "as §1, §2, §3"}, "[4]": {"details": "PA01, three replicates, hydrogel coating 10% CSA-131 2-NDSA, re-inoculated every 24 h"}, "[5]": {"details": "three replicates, hydrogel coating 10% CSA-131 2-NDSA, re-inoculated every 24 h"}, "[6]": {"details": "Unwashed, hydrogel coating 10% CSA-131 HCl, 3% citric acid, PA01 re-inoculated every 24 h"}, "[7]": {"details": "Wash Time 15 min in PBS, hydrogel coating 10% CSA-131 HCl, 3% citric acid, PA01 re-inoculated every 24 h"}, "[8]": {"details": "Wash Time 30 min in PBS, hydrogel coating 10% CSA-131 HCl, 3% citric acid, PA01 re-inoculated every 24 h"}, "[9]": {"details": "Wash Time 1 hour in PBS, hydrogel coating 10% CSA-131 HCl, 3% citric acid, PA01 re-inoculated every 24 h"}},
  "note": "Values joined by “and” are separate entries in the source; they are usually repeats but may differ in a detail not shown here. Identical values can stand only once.",
  "data": [
    {"molecule": "CCCCCCCCCCCCNCCC[C@@H](C)[C@H]1CC[C@H]2[C@@H]3[C@H](OCCCN)C[C@@H]4C[C@H](OCCCN)CC[C@]4(C)[C@H]3C[C@H](OCCCN)[C@]12C.O=S(=O)(O)c1cccc2c(S(=O)(=O)O)cccc12.O=S(=O)(O)c1cccc2c(S(=O)(=O)O)cccc12", "note": "[CSA-131 2-NDSA]", "values": [
      {"measurement": "bacteria from sonication of tube sections (biofilm)", "setting": "PA01", "value": "no bacteria were detected"},
      {"measurement": "bacteria in collected effluent from tubes", "setting": "PA01", "value": "no bacteria were detected"},
      {"measurement": "coating stability", "setting": "[1]; CSA-131 2-NDSA in hydrogel coating", "value": "stable coatings"},
      {"measurement": "reaction with ETO during sterilization", "setting": "[1]; CSA-131 2-NDSA particles (200 nm) in hydrogel coating", "value": "did not react with ETO"},
      {"measurement": "bacterial growth in medium, Day 1", "setting": "[2]; [4]", "value": "N"},
      {"measurement": "bacterial growth in medium, Day 2", "setting": "[2]; [4]", "value": "N"},
      {"measurement": "bacterial growth in medium, Day 3", "setting": "[2]; [4]", "value": "N"},
      {"measurement": "bacterial growth in medium, Day 4", "setting": "[2]; [4]", "value": "N"},
      {"measurement": "bacterial growth in medium, Day 5", "setting": "[2]; [4]", "value": "N"},
      {"measurement": "bacterial growth in medium, Day 6", "setting": "[2]; [4]", "value": "N"},
      {"measurement": "bacterial growth in medium, Day 7", "setting": "[2]; [4]", "value": "N"},
      {"measurement": "bacterial growth in medium, Day 8", "setting": "[2]; [4]", "value": "G"},
      {"measurement": "bacterial growth in medium, Day 9", "setting": "[2]; [4]", "value": "G"},
      {"measurement": "bacterial growth in medium, Day 10", "setting": "[2]; [4]", "value": "G"},
      {"measurement": "time coating prevented bacterial growth", "setting": "[2]; PA01, hydrogel coating ca. 10 microns, 10% CSA-131 2-NDSA", "value": "seven"},
      {"measurement": "time coating prevented bacterial growth", "setting": "[3]; hydrogel coating ca. 10 microns, 10% CSA-131 2-NDSA", "value": "eight"},
      {"measurement": "bacterial growth in medium, Day 1", "setting": "[3]; [5]", "value": "N"},
      {"measurement": "bacterial growth in medium, Day 2", "setting": "[3]; [5]", "value": "N"},
      {"measurement": "bacterial growth in medium, Day 3", "setting": "[3]; [5]", "value": "N"},
      {"measurement": "bacterial growth in medium, Day 4", "setting": "[3]; [5]", "value": "N"},
      {"measurement": "bacterial growth in medium, Day 5", "setting": "[3]; [5]", "value": "N"},
      {"measurement": "bacterial growth in medium, Day 6", "setting": "[3]; [5]", "value": "N"},
      {"measurement": "bacterial growth in medium, Day 7", "setting": "[3]; [5]", "value": "G and N (2×)"},
      {"measurement": "bacterial growth in medium, Day 8", "setting": "[3]; [5]", "value": "G and N (2×)"},
      {"measurement": "bacterial growth in medium, Day 9", "setting": "[3]; [5]", "value": "G"},
      {"measurement": "bacterial growth in medium, Day 10", "setting": "[3]; [5]", "value": "G"}
    ]},
    {"molecule": "CCCCCCCCCCCCNCCC[C@@H](C)[C@H]1CC[C@H]2[C@@H]3[C@H](OCCCN)C[C@@H]4C[C@H](OCCCN)CC[C@]4(C)[C@H]3C[C@H](OCCCN)[C@]12C.Cl.Cl.Cl.Cl", "note": "[CSA-131 HCl]", "values": [
      {"measurement": "mechanical integrity of coating on silicone tube segments", "setting": "[1]; CSA-131 HCl 10% relative to coating solids, prolonged soaking in buffer", "value": "some flaking of the coating"},
      {"measurement": "ETO adduct formation", "setting": "[1]; hydrogel coating with at least 3% (by weight relative to hydrogel solids) citric acid", "value": "eliminated"},
      {"measurement": "reaction with ETO during sterilization", "setting": "[1]; tube segments coated with hydrogel containing CSA-131 HCl (10%)", "value": "substantial reaction, leading to ETO adducts"},
      {"measurement": "bacterial growth in medium, Day 1", "setting": "[2]; [6]", "value": "N"},
      {"measurement": "bacterial growth in medium, Day 2", "setting": "[2]; [6]", "value": "N"},
      {"measurement": "bacterial growth in medium, Day 3", "setting": "[2]; [6]", "value": "N"},
      {"measurement": "bacterial growth in medium, Day 4", "setting": "[2]; [6]", "value": "N"},
      {"measurement": "bacterial growth in medium, Day 5", "setting": "[2]; [6]", "value": "G"},
      {"measurement": "bacterial growth in medium, Day 6", "setting": "[2]; [6]", "value": "G"},
      {"measurement": "bacterial growth in medium, Day 7", "setting": "[2]; [6]", "value": "G"},
      {"measurement": "bacterial growth in medium, Day 1", "setting": "[2]; [7]", "value": "N"},
      {"measurement": "bacterial growth in medium, Day 2", "setting": "[2]; [7]", "value": "N"},
      {"measurement": "bacterial growth in medium, Day 3", "setting": "[2]; [7]", "value": "N"},
      {"measurement": "bacterial growth in medium, Day 4", "setting": "[2]; [7]", "value": "N"},
      {"measurement": "bacterial growth in medium, Day 5", "setting": "[2]; [7]", "value": "G"},
      {"measurement": "bacterial growth in medium, Day 6", "setting": "[2]; [7]", "value": "G"},
      {"measurement": "bacterial growth in medium, Day 7", "setting": "[2]; [7]", "value": "G"},
      {"measurement": "bacterial growth in medium, Day 1", "setting": "[2]; [8]", "value": "N"},
      {"measurement": "bacterial growth in medium, Day 2", "setting": "[2]; [8]", "value": "N"},
      {"measurement": "bacterial growth in medium, Day 3", "setting": "[2]; [8]", "value": "N"},
      {"measurement": "bacterial growth in medium, Day 4", "setting": "[2]; [8]", "value": "N"},
      {"measurement": "bacterial growth in medium, Day 5", "setting": "[2]; [8]", "value": "G"},
      {"measurement": "bacterial growth in medium, Day 6", "setting": "[2]; [8]", "value": "G"},
      {"measurement": "bacterial growth in medium, Day 7", "setting": "[2]; [8]", "value": "G"},
      {"measurement": "bacterial growth in medium, Day 1", "setting": "[2]; [9]", "value": "N"},
      {"measurement": "bacterial growth in medium, Day 2", "setting": "[2]; [9]", "value": "N"},
      {"measurement": "bacterial growth in medium, Day 3", "setting": "[2]; [9]", "value": "N"},
      {"measurement": "bacterial growth in medium, Day 4", "setting": "[2]; [9]", "value": "N"},
      {"measurement": "bacterial growth in medium, Day 5", "setting": "[2]; [9]", "value": "G"},
      {"measurement": "bacterial growth in medium, Day 6", "setting": "[2]; [9]", "value": "G"},
      {"measurement": "bacterial growth in medium, Day 7", "setting": "[2]; [9]", "value": "G"}
    ]}
  ]
}
